According to publication PMC8038054, “Bis-3-Chloropiperidines Targeting TAR RNA as A Novel Strategy to Impair the HIV-1 Nucleocapsid Protein” (Molecules, 2021):

How the values were obtained:
TAR RNA [1] = experiment: Electrophoretic Mobility Shift Assay (EMSA), non-denaturing PAGE; format: binding, HIV-1; conditions: 1 μM folded TAR, 0-50 μM compound, 2 h 37 °C, BPE buffer pH 7.4
Description: To further evaluate the interaction of B-CePs to TAR RNA, Electrophoretic Mobility Shift Assay (EMSA) was used as a simple tool to visualize the putative interaction of compound 1 with TAR. The RNA was folded in its hairpin secondary structure, incubated for 2 h at 37 °C with increasing concentrations of compound 1 (0, 1, 5, 10, 25, 35, 50 μM), and the reaction products were resolved by polyacrylamide gel electrophoresis (PAGE). Figure 3 provides the results obtained in non-denaturing PAGE.
Figure 3 Non-denaturing polyacrylamide gel electrophoresis (PAGE) (PAA 12%) in TBE 1× showing the concentration-dependence of the interaction of B-CeP 1 with TAR. Folded TAR hairpin 1 μM was incubated with increasing concentrations of compound (0, 1, 5, 10, 25, 35, 50 μM) for 2 h at 37 °C with a BPE buffer (pH 7.4).
Electrophoretic Mobility Shift Assay (EMSA) was used to assess the ability of compound 1 to directly interact to TAR RNA construct. Prior to incubation with compound, TAR RNA was heated to 95 °C for 5 min and then ice-cooled in order to assume the proper hairpin structure. TAR RNA construct (1 μM) was then incubated with increasing concentrations (from 0 to 50 μM) of B-CeP 1, at 37 °C for 2 h in 1× BPE buffer (pH 7.4). […] Fluorescence in gel system was detected on a Geliance 600 Imaging System (PerkinElmer, Waltham, MA, USA).

TAR RNA [2] = experiment: ESI-MS of reaction mixtures of B-CePs with TAR; format: binding, HIV-1
From the text: To elucidate the molecular details of the products observed by PAGE, we further characterized the outcome of the reaction with TAR by electrospray ionization-mass spectrometry (ESI-MS). A preliminary determination was accomplished on the individual TAR construct, and a representative ESI-MS spectrum is provided in Figure 4A. Only the region containing the 5-charge state is shown for the sake of clarity. The detected species labelled [TAR-5H]^5− in Figure 4A afforded an experimental mass of 9286.25 Da, which matches the monoisotopic value of 9286.24 Da calculated from the RNA sequence very closely (Table 1). Successively, we performed the experiment by reacting compound 1 with TAR at 1 μM. After 2 h of incubation, at 37 °C, the reaction mixture was submitted to ethanol precipitation to achieve quenching and desalting, which enabled a direct infusion ESI-MS analysis. […] In the presence of nucleic acids, aziridinium preferentially attacks N7 of guanines on the substrate, forming different types of adduct (Scheme S1 in Supplementary Materials).^22 Analyzing a new species in Figure 4B, their masses matched those of products generated by either mono- or bis-alkylation reactions. The species TAR + 1B, displaying a mass of 9548.49 u, corresponded to bi-functional adducts formed by the reaction of both 3-chloropiperidine reactive moieties with the RNA strand (labelled [TAR + 1B − 5H]^5− in the inset in Figure 4B). Differently, TAR + 1M species with a mass of 9566.49 u was assigned to mono-functional adducts, in which only one of the 3-chloropiperidines reacted with the substrate, whereas the other was hydrolyzed to 3-hydroxyl by the aqueous environment (labelled [TAR + 1M − 5H]^5− in the inset in Figure 4B). Table 1 summarizes the experimental and calculated masses of the new products and provides the assignment of the various species detected in Figure 4B.
Figure 4 Representative electrospray-ionization mass spectrometry (ESI-MS) spectra of reaction mixtures obtained by incubating TAR (1 μM) with increasing B-CeP 1 (A:0, B:1, C:10, D:50 μM) at 37 °C for 2 h in a BPE buffer (pH 7.4). The spectra B–D show the concentration-dependent reactions induced by B-CeP 1 on TAR. Greater stoichiometries corresponding to combinations of mono- and bi-functional adducts, were detected and indicated in orange in the figure. The spectra were recorded in 150 mM ammonium acetate. Lower intensity signals near free/adducted species consist of typical sodium and ammonium adducts. Only region containing the 5-charge state is shown for the sake of clarity.
The results shown in Figure 4C,D show the reaction products obtained, further increasing the concentration of compound 1, with 1 μM TAR solution incubated with 10 and 50 μM of B-CeP 1, respectively. […]

[3] = test system: recombinant full-length HIV-1 NC; experiment: High-throughput screening (HTS): inhibition of NC-mediated melting of TAR RNA hairpin; format: biochemical; conditions: 0.1 μM TAR, 0.8 μM NC, compound pre-incubated 37 °C 2 h; mean of three experiments; read-out: IC50, inhibition of NC-mediated melting of individual TAR RNA hairpin
Description: This assay is based on the doubly labeled TAR construct used above in the FQA experiments and is extensively employed to screen for inhibitors of NC melting activity. After preliminary controls to ensure the absence of direct quenching activity by the compounds under investigation, their ability to inhibit TAR RNA melting was evaluated in the presence of recombinant full-length HIV-1 NC. By adding increasing amounts of B-CePs, we determined the concentration of each compound that induced a 50% reduction in the destabilizing activity of NC (i.e., IC50) on TAR.
High-throughput screening (HTS) was performed to identify the inhibitors of NC chaperone activity on TAR. We used a VictorIII (PerkinElmer) microplate reader with 485 and 535 nm as the excitation and emission wavelengths. The TAR RNA hairpin was formed by snap cooling in the 1× BPE buffer, as described above. A 1 μM aliquot of TAR, which bore 5′-FAM and 3′-DAB modifications, was folded in 1× BPE buffer. The samples were then diluted to 0.1 μM in 1× BPE buffer. Increasing concentrations of compound (0, 0.1, 0.5, 1, 5, 10, 50, 100 μM final) were added to each sample and incubated at 37 °C for 2 h before introducing NC to a final concentration of 0.8 μM (for a 1:8 oligo to NC molar ratio). The plate was immediately read at room temperature three times with 1 min intervals, unless differently specified. The experimental data were fitted as reported earlier to enable calculation of the respective IC50 value.16 Each experiment was performed in triplicate to calculate an average and standard deviation.

[4] = cited from earlier work
TAR RNA [5] = experiment: Fluorescence quenching assay (FQA): thermal melting of TAR RNA hairpin; format: binding, HIV-1; conditions: 10 μM compound, 1 μM TAR, 37 °C 2 h, BPE buffer
From the text: A first insight into the putative interaction of B-CePs with RNA was offered by the investigation of the ability of the selected compounds to stabilize the TAR hairpin structure. We employed fluorescence quenching assays (FQA) to measure the ability of each B-CeP to modify the thermal denaturation profile of the TAR construct shown in Figure 1A, which was functionalized at both termini with a fluorophore-quencher couple. In this way, thermal melting of the structure can be assessed from the intensity of the detected fluorescence signal. The melting profile of TAR in the presence of increasing concentrations of each compound allowed an evaluation of the shift in melting temperature (ΔTm) from the reference value, which was determined in the absence of compound. Sample solutions contained 1 μM of RNA substrate and 10, 50 or 100 μM of each B-CePs compound. Figure 2 summarizes the values of ΔTm obtained by adding increasing concentrations of B-CePs 1–5. […]
The ability of the tested compounds to stabilize the TAR RNA structure was measured by the increase in the melting temperature of the oligoribonucleotide in the presence of different concentrations of each compound. […] Fluorescence emission of FAM was read by using a Light Cycler 480 II (Roche, Basel, CH) with emission at λ = 510 nm and correlated to the melting temperature of the oligoribonucleotide. […]

Row | SMILES | IC50 [3] [µM] | Tm increase of TAR RNA (stabilization effect) (TAR RNA [5]) | also measured
1 | CC1(C)CC(Cl)CN(CCCN2CC(Cl)CC(C)(C)C2)C1 (centres unmarked) [Compound 1] | 4.75 ± 0.15 |  | Concentration at which binding events (band shift) reach a plateau (TAR RNA [1]): 25 µM; Binding stoichiometries on TAR detected by ESI-MS (TAR RNA [2]; 1 μM TAR with 10 and 50 μM compound): up to five equivalents; Products of the reaction with TAR detected by ESI-MS (TAR RNA [2]; 1 μM TAR, 37 °C 2 h, BPE buffer): covalent adducts; Fragmentation of the oligoribonucleotide chain of TAR RNA (TAR RNA [2]; ESI spectrometry and gel electrophoresis): not detected; Cytotoxicity ([4]; ref [22],[25]): low cytotoxicity
2 | CC1(C)CC(Cl)CN(CCCCCN2CC(Cl)CC(C)(C)C2)C1 (centres unmarked) [Compound 2] | 2.75 ± 0.7 |  | Relative reactivity towards the TAR construct (comparison of ESI-MS spectra) (TAR RNA [2]; same B-CeP/TAR molar ratio (10 μM compound, 1 μM TAR)): most reactive; Effect of the longer linker on cell permeability and cytotoxicity ([4]; ref [26]): increases cell permeability and cytotoxicity
3 | CC1(C)CC(Cl)CN(CCCCCCN2CC(Cl)CC(C)(C)C2)C1 (centres unmarked) [Compound 3] | 3.55 ± 0.37 |  | 
4 | COC(=O)[C@H](CCCCN1CC(Cl)CC(C)(C)C1)N1CC(Cl)CC(C)(C)C1 (some centres unmarked) [Compound 4] | 5.09 ± 0.05 | much weaker stabilization effect | 
5 | COC(=O)[C@@H](CCCCN1CC(Cl)CC(C)(C)C1)N1CC(Cl)CC(C)(C)C1 (some centres unmarked) [Compound 5] | 4.78 ± 0.71 | much weaker stabilization effect | 
